Measurements from patent publication US20250120988A1, “SMALL MOLECULE COMPOUND FOR TREATING ISCHEMIC STROKE, ITS PREPARATION METHOD, AND APPLICATION” (SHANGHAI SIXTH PEOPLE'S HOSPITAL, priority 2023, published 2025).

What was measured:
[1] = test system: CHO cells transfected with ASIC1a; assay: PI cell death staining of ASIC1a-transfected CHO cells treated with glutamate at pH 7; assay type: cell-based, Chinese hamster; settings: 10 μM; 500 μM glutamate, pH 7, 1 hour
Experimental: Figure a illustrates cortical neurons staining from wild-type (ASIC1a+/+) and gene-deficient (ASIC1a−/−) mice primary cultures in the calcein-PI staining experiment. Blue green represents viable cells, and red represents dead cell nuclei. 10 μM CGS19755 and 10 μM LK-2 were added respectively in the cell culture medium under pH 7.0 conditions with OGD to be treated for 1 hour. Figure c illustrates, after being treated in the same experimental groups as Figure a, the analysis of each group of LDH of relative release levels. Figure d illustrates PI staining of ASIC1a-transfected CHO cells after 1 hour of treatment with pH 7.0 and 500 μM glutamate (Glu). […]
Taking into consideration that in addition to ASIC1a, neurons also express multiple membrane proteins that can be activated and lead to cell death during OGD, in order to more accurately verify that cell death is caused by glutamate activation of ASIC1a and that LK-2 indeed competitively antagonizes the glutamate so as to reduce cell death, we conducted the following experiment: CHO cells transfected with ASIC1a-GFP were divided into a control group (500 μM glutamate) and a drug intervention group (500 μM glutamate+10 μM LK-2). […] Live and dead cell nuclei were determined by observing under a 40× objective using excitation wavelengths of 488 nm and 546 nm. The number of stained cell nuclei was counted using Image-J software.

[2] = target: T1, GluN1+NR2A (Homo sapiens, UniProt Q05586+Q12879); assay: Whole-cell patch clamp, blocking of GluN1+NR2A NMDAR current in CHO cells; assay type: cell-based; settings: 100 μM NMDA and 1 μM glycine, read-out: IC50 of competitive antagonism against glutamate binding GluN1+NR2A currents
T1 construct: expressed in transfected cells; host or cells: CHO cells
Experimental: Figure a illustrates LK-2 concentration-dependent blocking of signal of GluN1+GluN2A and GluN1+GluN2B subtypes of NMDAR currents (recorded from the same CHO cell) in patch clamp experiments, with 100 μM NDMA and 1 μM glycine used to activate NMDAR currents. LK-2 concentrations were 1, 10, 100, and 500 μM in sequence. Figure b illustrates the dose-response curves fitted based on the current amplitudes recorded in Figure a, with IC50 representing the half-maximal inhibitory concentration. Smaller IC50 values indicate stronger blocking effects of the compound.
[drawing 3] • 2. Electrophysiological experiments refer to the use of patch clamp techniques to overexpress ASICs (ASIC1a) and NMDARs (GluNR1+NR2A or GluNR1+NR2B) in CHO cell lines (Chinese hamster ovary cells), with the above-mentioned proteins carrying GFP green fluorescent protein for identification under fluorescence microscopy. The synthesized small molecules are separately tested for their blocking effects on the currents generated by the two types of receptors, and the IC50 values are calculated. • 2.1 The experimental steps of the membrane clamp technique are as follows.
Whole-cell patch clamp recordings were performed on neurons or CHO cells cultured in a cell-culture dish mounted on a fixed stage upright microscope. The recording electrode (resistance 4-6 MΩ) was made of 1.5 mm borosilicate glass. […]

T1 sequence (Q12879 23-1464, other chains not shown): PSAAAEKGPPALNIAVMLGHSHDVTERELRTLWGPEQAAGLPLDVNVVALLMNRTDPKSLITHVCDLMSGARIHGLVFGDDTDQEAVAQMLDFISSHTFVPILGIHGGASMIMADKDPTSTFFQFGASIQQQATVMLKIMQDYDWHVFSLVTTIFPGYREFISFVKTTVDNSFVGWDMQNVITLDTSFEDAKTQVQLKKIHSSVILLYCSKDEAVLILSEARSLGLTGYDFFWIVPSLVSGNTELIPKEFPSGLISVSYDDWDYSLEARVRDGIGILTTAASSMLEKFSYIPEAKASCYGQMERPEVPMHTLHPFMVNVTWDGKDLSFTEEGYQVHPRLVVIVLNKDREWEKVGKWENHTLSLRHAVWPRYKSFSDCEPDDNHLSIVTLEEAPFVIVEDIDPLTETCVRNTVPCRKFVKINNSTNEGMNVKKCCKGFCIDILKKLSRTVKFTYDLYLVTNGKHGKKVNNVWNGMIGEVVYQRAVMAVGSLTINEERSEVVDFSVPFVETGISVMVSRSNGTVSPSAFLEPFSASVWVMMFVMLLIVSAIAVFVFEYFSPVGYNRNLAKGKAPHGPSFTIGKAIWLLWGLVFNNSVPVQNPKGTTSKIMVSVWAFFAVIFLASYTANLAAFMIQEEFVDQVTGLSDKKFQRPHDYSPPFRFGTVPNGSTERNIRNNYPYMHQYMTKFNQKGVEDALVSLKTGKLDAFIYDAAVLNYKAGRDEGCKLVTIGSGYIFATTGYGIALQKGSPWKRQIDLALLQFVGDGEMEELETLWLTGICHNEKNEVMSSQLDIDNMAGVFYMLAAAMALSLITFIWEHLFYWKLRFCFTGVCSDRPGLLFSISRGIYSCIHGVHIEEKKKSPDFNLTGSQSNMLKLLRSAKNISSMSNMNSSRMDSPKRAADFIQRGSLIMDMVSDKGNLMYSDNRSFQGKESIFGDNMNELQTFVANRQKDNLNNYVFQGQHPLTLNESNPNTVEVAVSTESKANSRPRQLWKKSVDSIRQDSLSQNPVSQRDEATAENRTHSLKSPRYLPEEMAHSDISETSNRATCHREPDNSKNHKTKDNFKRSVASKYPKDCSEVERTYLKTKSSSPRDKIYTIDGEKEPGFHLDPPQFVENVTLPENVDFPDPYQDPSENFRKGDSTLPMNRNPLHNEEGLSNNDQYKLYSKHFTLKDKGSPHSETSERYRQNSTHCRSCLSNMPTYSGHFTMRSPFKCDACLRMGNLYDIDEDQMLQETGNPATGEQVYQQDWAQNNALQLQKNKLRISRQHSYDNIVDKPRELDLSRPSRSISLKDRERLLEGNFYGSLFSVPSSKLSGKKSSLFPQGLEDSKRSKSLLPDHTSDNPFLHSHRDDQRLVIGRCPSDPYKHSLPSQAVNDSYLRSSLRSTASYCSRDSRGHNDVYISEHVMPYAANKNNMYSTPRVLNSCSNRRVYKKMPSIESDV

IC50 [2]: 93.1 ± 28.3 µM
Compound: O=C(O)C1CN(C(c2ccccc2)P(=O)(O)O)CCN1 (centres unmarked) [LK-2]
reduction of death rate of transfected cells [1]: 40%
